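A five-concentration, 48-hour dose response in 96-well plates underlies each endpoint, interpolated linearly between surrounding concentrations. GI50 marks 50% less growth. TGI denotes the concentration required for complete inhibition of growth.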
tested on: NCI-H226 lung; assay: NCI tumour cell line growth inhibition, 48 h

`BrC1=C(Br)C2(SCCS2)[C@H]2C[C@@H]1c1ccccc12` and `N#Cc1c(NC(=O)NCc2ccccc2)sc2c1CCCCC2` cannot be ordered by TGI: > 100 µM for the first, > 28.8 µM for the second.

For `C/C=C(\C)C(=O)O[C@H]1C=CC(=O)O[C@H]1CCC(=O)[C@H](C)O`, the TGI was 34.8 µM.

In order of falling GI50:
1. C/C=C(\C)C(=O)O[C@H]1C=CC(=O)O[C@H]1CCC(=O)[C@H](C)O  15.1 µM
2. N#Cc1c(NC(=O)NCc2ccccc2)sc2c1CCCCC2  1.05 µM

tested on: NCI-H23 lung; assay: NCI tumour cell line growth inhibition, 48 h

`CC1(C)CC(=O)C(C=NC(=S)c2ccccc2)=C(O)C1` and `N#Cc1c(NC(=O)NCc2ccccc2)sc2c1CCCCC2` cannot be ordered by TGI: > 100 µM for the first, > 59.8 µM for the second.

`BrC1=C(Br)C2(SCCS2)[C@H]2C[C@@H]1c1ccccc12` and `CCCCCCNc1n[nH]c(=O)c2c1nnn2Cc1ccccc1` cannot be ordered by TGI: > 100 µM for the first, > 100 µM for the second.

`C/C=C(\C)C(=O)O[C@H]1C=CC(=O)O[C@H]1CCC(=O)[C@H](C)O` was tested, and the TGI was 43.9 µM.

In order of rising GI50:
1. N#Cc1c(NC(=O)NCc2ccccc2)sc2c1CCCCC2  0.695 µM
2. C/C=C(\C)C(=O)O[C@H]1C=CC(=O)O[C@H]1CCC(=O)[C@H](C)O  20.5 µM

tested on: NCI-H460 lung; assay: NCI tumour cell line growth inhibition, 48 h

`CC1(C)CC(=O)C(C=NC(=S)c2ccccc2)=C(O)C1` and `N#Cc1c(NC(=O)NCc2ccccc2)sc2c1CCCCC2` cannot be ordered by TGI: > 100 µM for the first, > 31.7 µM for the second.

`BrC1=C(Br)C2(SCCS2)[C@H]2C[C@@H]1c1ccccc12` and `CCCCCCNc1n[nH]c(=O)c2c1nnn2Cc1ccccc1` cannot be ordered by TGI: > 100 µM for the first, > 100 µM for the second.

`C/C=C(\C)C(=O)O[C@H]1C=CC(=O)O[C@H]1CCC(=O)[C@H](C)O` was tested, and the TGI was 43.2 µM.

In order of falling GI50:
1. C/C=C(\C)C(=O)O[C@H]1C=CC(=O)O[C@H]1CCC(=O)[C@H](C)O  19.2 µM
2. N#Cc1c(NC(=O)NCc2ccccc2)sc2c1CCCCC2  0.352 µM

tested on: NCI-H522 lung; assay: NCI tumour cell line growth inhibition, 48 h

Compared with `CC1(C)CC(=O)C(C=NC(=S)c2ccccc2)=C(O)C1`, `N#Cc1c(NC(=O)NCc2ccccc2)sc2c1CCCCC2` is lower in TGI: > 100 µM for the first, 25.3 µM for the second.

Compared with `BrC1=C(Br)C2(SCCS2)[C@H]2C[C@@H]1c1ccccc12`, `C/C=C(\C)C(=O)O[C@H]1C=CC(=O)O[C@H]1CCC(=O)[C@H](C)O` is lower in TGI: > 100 µM for the first, 33.7 µM for the second.

In order of falling GI50:
1. C/C=C(\C)C(=O)O[C@H]1C=CC(=O)O[C@H]1CCC(=O)[C@H](C)O  13.5 µM
2. N#Cc1c(NC(=O)NCc2ccccc2)sc2c1CCCCC2  0.601 µM

tested on: NCI/ADR-RES ovarian; assay: NCI tumour cell line growth inhibition, 48 h

Compared with `CC1(C)CC(=O)C(C=NC(=S)c2ccccc2)=C(O)C1`, `N#Cc1c(NC(=O)NCc2ccccc2)sc2c1CCCCC2` is lower in TGI: > 100 µM for the first, 27.1 µM for the second.

`BrC1=C(Br)C2(SCCS2)[C@H]2C[C@@H]1c1ccccc12` and `CCCCCCNc1n[nH]c(=O)c2c1nnn2Cc1ccccc1` cannot be ordered by TGI: > 100 µM for the first, > 100 µM for the second.

With `C/C=C(\C)C(=O)O[C@H]1C=CC(=O)O[C@H]1CCC(=O)[C@H](C)O` the TGI was 56.1 µM.

In order of falling GI50:
1. C/C=C(\C)C(=O)O[C@H]1C=CC(=O)O[C@H]1CCC(=O)[C@H](C)O  21.1 µM
2. N#Cc1c(NC(=O)NCc2ccccc2)sc2c1CCCCC2  0.42 µM

tested on: OVCAR-3 ovarian; assay: NCI tumour cell line growth inhibition, 48 h

Compared with `CC1(C)CC(=O)C(C=NC(=S)c2ccccc2)=C(O)C1`, `N#Cc1c(NC(=O)NCc2ccccc2)sc2c1CCCCC2` is lower in TGI: > 100 µM for the first, 1.61 µM for the second.

`BrC1=C(Br)C2(SCCS2)[C@H]2C[C@@H]1c1ccccc12` and `CCCCCCNc1n[nH]c(=O)c2c1nnn2Cc1ccccc1` cannot be ordered by TGI: > 100 µM for the first, > 100 µM for the second.

`C/C=C(\C)C(=O)O[C@H]1C=CC(=O)O[C@H]1CCC(=O)[C@H](C)O` was tested, and the TGI was 22.3 µM.

In order of falling GI50:
1. C/C=C(\C)C(=O)O[C@H]1C=CC(=O)O[C@H]1CCC(=O)[C@H](C)O  9.58 µM
2. N#Cc1c(NC(=O)NCc2ccccc2)sc2c1CCCCC2  0.346 µM

tested on: OVCAR-4 ovarian; assay: NCI tumour cell line growth inhibition, 48 h

`CC1(C)CC(=O)C(C=NC(=S)c2ccccc2)=C(O)C1` and `N#Cc1c(NC(=O)NCc2ccccc2)sc2c1CCCCC2` cannot be ordered by TGI: > 100 µM for the first, > 100 µM for the second.

`BrC1=C(Br)C2(SCCS2)[C@H]2C[C@@H]1c1ccccc12` and `CCCCCCNc1n[nH]c(=O)c2c1nnn2Cc1ccccc1` cannot be ordered by TGI: > 100 µM for the first, > 100 µM for the second.

`C/C=C(\C)C(=O)O[C@H]1C=CC(=O)O[C@H]1CCC(=O)[C@H](C)O` gave a TGI of 25.4 µM.

In order of falling GI50:
1. C/C=C(\C)C(=O)O[C@H]1C=CC(=O)O[C@H]1CCC(=O)[C@H](C)O  11.9 µM
2. N#Cc1c(NC(=O)NCc2ccccc2)sc2c1CCCCC2  1.32 µM

tested on: OVCAR-5 ovarian; assay: NCI tumour cell line growth inhibition, 48 h

`CC1(C)CC(=O)C(C=NC(=S)c2ccccc2)=C(O)C1` and `N#Cc1c(NC(=O)NCc2ccccc2)sc2c1CCCCC2` cannot be ordered by TGI: > 100 µM for the first, > 100 µM for the second.

`BrC1=C(Br)C2(SCCS2)[C@H]2C[C@@H]1c1ccccc12` and `CCCCCCNc1n[nH]c(=O)c2c1nnn2Cc1ccccc1` cannot be ordered by TGI: > 100 µM for the first, > 100 µM for the second.

Work on `C/C=C(\C)C(=O)O[C@H]1C=CC(=O)O[C@H]1CCC(=O)[C@H](C)O` yielded a TGI of 50.8 µM.

In order of falling GI50:
1. C/C=C(\C)C(=O)O[C@H]1C=CC(=O)O[C@H]1CCC(=O)[C@H](C)O  22.4 µM
2. N#Cc1c(NC(=O)NCc2ccccc2)sc2c1CCCCC2  2.05 µM

tested on: OVCAR-8 ovarian; assay: NCI tumour cell line growth inhibition, 48 h

`CC1(C)CC(=O)C(C=NC(=S)c2ccccc2)=C(O)C1` and `N#Cc1c(NC(=O)NCc2ccccc2)sc2c1CCCCC2` cannot be ordered by TGI: > 100 µM for the first, > 100 µM for the second.

`BrC1=C(Br)C2(SCCS2)[C@H]2C[C@@H]1c1ccccc12` and `CCCCCCNc1n[nH]c(=O)c2c1nnn2Cc1ccccc1` cannot be ordered by TGI: > 100 µM for the first, > 100 µM for the second.

`C/C=C(\C)C(=O)O[C@H]1C=CC(=O)O[C@H]1CCC(=O)[C@H](C)O` gave a TGI of 52.8 µM.

In order of falling GI50:
1. C/C=C(\C)C(=O)O[C@H]1C=CC(=O)O[C@H]1CCC(=O)[C@H](C)O  20.7 µM
2. N#Cc1c(NC(=O)NCc2ccccc2)sc2c1CCCCC2  1.61 µM

tested on: PC-3 prostate; assay: NCI tumour cell line growth inhibition, 48 h

`CC1(C)CC(=O)C(C=NC(=S)c2ccccc2)=C(O)C1` and `N#Cc1c(NC(=O)NCc2ccccc2)sc2c1CCCCC2` cannot be ordered by TGI: > 100 µM for the first, > 100 µM for the second.

`BrC1=C(Br)C2(SCCS2)[C@H]2C[C@@H]1c1ccccc12` and `CCCCCCNc1n[nH]c(=O)c2c1nnn2Cc1ccccc1` cannot be ordered by TGI: > 100 µM for the first, > 100 µM for the second.

Work on `C/C=C(\C)C(=O)O[C@H]1C=CC(=O)O[C@H]1CCC(=O)[C@H](C)O` yielded a TGI of 32 µM.

In order of falling GI50:
1. C/C=C(\C)C(=O)O[C@H]1C=CC(=O)O[C@H]1CCC(=O)[C@H](C)O  15.8 µM
2. N#Cc1c(NC(=O)NCc2ccccc2)sc2c1CCCCC2  0.488 µM

tested on: RPMI-8226 leukemia; assay: NCI tumour cell line growth inhibition, 48 h

`BrC1=C(Br)C2(SCCS2)[C@H]2C[C@@H]1c1ccccc12` and `CCCCCCNc1n[nH]c(=O)c2c1nnn2Cc1ccccc1` cannot be ordered by TGI: > 100 µM for the first, > 100 µM for the second.

With `C/C=C(\C)C(=O)O[C@H]1C=CC(=O)O[C@H]1CCC(=O)[C@H](C)O` the TGI was 34 µM.

In order of falling GI50:
1. C/C=C(\C)C(=O)O[C@H]1C=CC(=O)O[C@H]1CCC(=O)[C@H](C)O  8.88 µM
2. N#Cc1c(NC(=O)NCc2ccccc2)sc2c1CCCCC2  0.397 µM

tested on: RXF 393 renal; assay: NCI tumour cell line growth inhibition, 48 h

Going from `BrC1=C(Br)C2(SCCS2)[C@H]2C[C@@H]1c1ccccc12` to `N#Cc1c(NC(=O)NCc2ccccc2)sc2c1CCCCC2`, the TGI falls from > 100 µM to 2.38 µM.

In the case of `C/C=C(\C)C(=O)O[C@H]1C=CC(=O)O[C@H]1CCC(=O)[C@H](C)O`, the TGI is reported as 28.5 µM.

In order of falling GI50:
1. C/C=C(\C)C(=O)O[C@H]1C=CC(=O)O[C@H]1CCC(=O)[C@H](C)O  7.08 µM
2. N#Cc1c(NC(=O)NCc2ccccc2)sc2c1CCCCC2  0.352 µM

tested on: SF-268 CNS; assay: NCI tumour cell line growth inhibition, 48 h

`CC1(C)CC(=O)C(C=NC(=S)c2ccccc2)=C(O)C1` and `N#Cc1c(NC(=O)NCc2ccccc2)sc2c1CCCCC2` cannot be ordered by TGI: > 100 µM for the first, > 100 µM for the second.

First: BrC1=C(Br)C2(SCCS2)[C@H]2C[C@@H]1c1ccccc12
Second: C/C=C(\C)C(=O)O[C@H]1C=CC(=O)O[C@H]1CCC(=O)[C@H](C)O
The TGI of the first is higher: > 100 µM for the first, 26.1 µM for the second.

In order of falling GI50:
1. C/C=C(\C)C(=O)O[C@H]1C=CC(=O)O[C@H]1CCC(=O)[C@H](C)O  11.3 µM
2. N#Cc1c(NC(=O)NCc2ccccc2)sc2c1CCCCC2  1.52 µM

tested on: SF-295 CNS; assay: NCI tumour cell line growth inhibition, 48 h

Going from `CC1(C)CC(=O)C(C=NC(=S)c2ccccc2)=C(O)C1` to `N#Cc1c(NC(=O)NCc2ccccc2)sc2c1CCCCC2`, the TGI falls from > 100 µM to 24 µM.

`BrC1=C(Br)C2(SCCS2)[C@H]2C[C@@H]1c1ccccc12` and `CCCCCCNc1n[nH]c(=O)c2c1nnn2Cc1ccccc1` cannot be ordered by TGI: > 100 µM for the first, > 100 µM for the second.

`C/C=C(\C)C(=O)O[C@H]1C=CC(=O)O[C@H]1CCC(=O)[C@H](C)O` gave a TGI of 50.8 µM.

In order of falling GI50:
1. C/C=C(\C)C(=O)O[C@H]1C=CC(=O)O[C@H]1CCC(=O)[C@H](C)O  23.6 µM
2. N#Cc1c(NC(=O)NCc2ccccc2)sc2c1CCCCC2  0.425 µM

tested on: SF-539 CNS; assay: NCI tumour cell line growth inhibition, 48 h

First: CC1(C)CC(=O)C(C=NC(=S)c2ccccc2)=C(O)C1
Second: N#Cc1c(NC(=O)NCc2ccccc2)sc2c1CCCCC2
The TGI of the first is higher: > 100 µM for the first, 1.87 µM for the second.

Going from `BrC1=C(Br)C2(SCCS2)[C@H]2C[C@@H]1c1ccccc12` to `C/C=C(\C)C(=O)O[C@H]1C=CC(=O)O[C@H]1CCC(=O)[C@H](C)O`, the TGI falls from > 100 µM to 35.8 µM.

In order of falling GI50:
1. C/C=C(\C)C(=O)O[C@H]1C=CC(=O)O[C@H]1CCC(=O)[C@H](C)O  19.2 µM
2. N#Cc1c(NC(=O)NCc2ccccc2)sc2c1CCCCC2  0.328 µM

tested on: SK-MEL-2 melanoma; assay: NCI tumour cell line growth inhibition, 48 h

`CC1(C)CC(=O)C(C=NC(=S)c2ccccc2)=C(O)C1` was tested, and the TGI was > 100 µM.
